Test results published in US20240368142A1, “KCNT1 INHIBITORS AND METHODS OF USE” (Praxis Precision Medicines, Inc., priority 2021, published 2024).

molecular target: T1, KCNT1 (KNa1.1, Slack) (Homo sapiens, UniProt Q5JUK3); assay: KCNT1-WT-Basal-Patch Clamp Assay; type: cell-based; details: tetracycline inducible cell line (HEK-TREX), SyncroPatch 384PE automated patch clamp, perforated patch, holding -80 mV with step to 0 mV, room temperature
T1 construct: expressed in transfected cells; host or cells: HEK-TREX (tetracycline inducible cell line)
T1 sequence (Q5JUK3 1-1230): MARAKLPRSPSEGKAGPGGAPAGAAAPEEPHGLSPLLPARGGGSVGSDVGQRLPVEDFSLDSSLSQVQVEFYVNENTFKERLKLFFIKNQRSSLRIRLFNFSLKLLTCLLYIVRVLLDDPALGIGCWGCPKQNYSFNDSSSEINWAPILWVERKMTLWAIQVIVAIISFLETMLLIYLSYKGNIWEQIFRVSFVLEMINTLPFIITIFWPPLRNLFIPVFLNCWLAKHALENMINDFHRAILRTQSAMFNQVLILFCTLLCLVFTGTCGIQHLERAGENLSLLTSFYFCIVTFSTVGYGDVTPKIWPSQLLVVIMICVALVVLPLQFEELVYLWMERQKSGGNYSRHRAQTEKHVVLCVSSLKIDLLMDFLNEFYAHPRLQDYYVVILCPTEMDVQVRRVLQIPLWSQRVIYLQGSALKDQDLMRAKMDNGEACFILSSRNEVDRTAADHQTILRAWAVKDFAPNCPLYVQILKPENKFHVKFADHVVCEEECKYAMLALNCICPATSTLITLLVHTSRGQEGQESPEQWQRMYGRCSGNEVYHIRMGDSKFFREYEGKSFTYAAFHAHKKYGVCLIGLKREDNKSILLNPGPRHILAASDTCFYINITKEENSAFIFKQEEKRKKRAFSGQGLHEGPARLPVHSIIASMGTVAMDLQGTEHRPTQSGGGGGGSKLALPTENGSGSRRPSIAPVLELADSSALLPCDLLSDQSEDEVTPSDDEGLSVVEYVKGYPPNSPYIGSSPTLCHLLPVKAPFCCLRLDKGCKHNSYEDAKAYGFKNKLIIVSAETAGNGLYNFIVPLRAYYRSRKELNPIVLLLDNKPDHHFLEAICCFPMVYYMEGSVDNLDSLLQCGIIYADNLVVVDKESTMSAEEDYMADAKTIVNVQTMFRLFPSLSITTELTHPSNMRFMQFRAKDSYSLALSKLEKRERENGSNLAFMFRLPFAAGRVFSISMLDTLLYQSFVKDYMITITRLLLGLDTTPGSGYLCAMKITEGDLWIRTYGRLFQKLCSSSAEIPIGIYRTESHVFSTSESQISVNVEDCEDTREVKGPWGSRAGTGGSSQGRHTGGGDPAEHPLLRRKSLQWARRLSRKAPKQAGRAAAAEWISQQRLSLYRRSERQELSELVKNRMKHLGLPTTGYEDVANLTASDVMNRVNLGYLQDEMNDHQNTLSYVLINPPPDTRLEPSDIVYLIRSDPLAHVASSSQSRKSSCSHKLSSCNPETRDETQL
Method: KCNT1-WT-Basal-Patch Clamp Assay
Inhibition of KCNT1 (KNa1.1, Slack) was evaluated using a tetracycline inducible cell line (HEK-TREX). Currents were recorded using the SyncroPatch 384PE automated, patch clamp system. Pulse generation and data collection were performed with PatchController384 V1.3.0 and DataController384 V1.2.1 (Nanion Technologies). The access resistance and apparent membrane capacitance were estimated using built-in protocols. Current were recorded in perforated patch mode (10 μM escin) from a population of cells. The cells were lifted, triturated, and resuspended at 800,000 cells/ml. The cells were allowed to recover in the cell hotel prior to experimentation. Currents were recorded at room temperature. The external solution contained the following (in mM): NaCl 105, NMDG 40, KCl 4, MgCl2 1, CaCl2 5 and HEPES 10 (pH=7.4, Osmolarity ˜300 mOsm). The extracellular solution was used as the wash, reference and compound delivery solution. The internal solution contained the following (in mM): NaCl 70, KF 70, KCl 10, EGTA 5, HEPES 5 and Escin 0.01 (pH=7.2, Osmolarity ˜295 mOsm). Escin is made at a 5 mM stock in water, aliquoted, and stored at −20° C. The compound plate was created at 2× concentrated in the extracellular solution. The compound was diluted to 1:2 when added to the recording well. The amount of DMSO in the extracellular solution was held constant at the level used for the highest tested concentration. A holding potential of −80 mV with a 100 ms step to 0 mV was used. Mean current was measured during the step to 0 mV. […] The average mean current from 3 sweeps was calculated and the % inhibition of each compound was calculated. The % Inhibition as a function of the compound concentration was fit with a Hill equation to derive IC50, slope, min and max parameters. If KCNT1 inhibition was less than 50% at the highest tested concentration or if an IC50 could not be calculated, then a percent inhibition was reported in place of the IC50. In this table, “A” indicates IC50 of less than or equal to 1 μM; “B” indicates inhibition of between 1 μM to 20 μM; and “C” indicates inhibition of greater than or equal to 20 μM.

| IC50 [µM] | SMILES |
| --- | --- |
| ≥ 20 | C[C@H](C(=O)N1CCCCC1)c1nc(-c2ccnc(C3CC3)c2)no1 (single isomer, unassigned) [Compound 7] |
| ≤ 1 | CC(C(=O)N[C@H](C)c1ccccc1)c1nc(-c2ccnc(C3CC3)c2)no1 (stereo partly drawn) [Compound 12, 2-(3-(2-cyclopropylpyridin-4-yl)-1,2,4-oxadiazol-5-yl)-N—((R)-1-phenylethyl)propanamide] |
| ≤ 1 | C[C@H](C(=O)Nc1ccccc1)c1nc(-c2ccnc(C3CC3)c2)no1 (single isomer, unassigned) [Compound 9] |
| ≤ 1 | CC(C(=O)NCc1ccccc1)c1nc(-c2ccnc(C3CC3)c2)no1 (stereo not drawn) [Compound 2, N-benzyl-2-(3-(2-cyclopropylpyridin-4-yl)-1,2,4-oxadiazol-5-yl)propanamide] |
| ≤ 1 | CC(C(=O)N[C@@H](C)c1ccccc1)c1nc(-c2ccnc(C3CC3)c2)no1 (stereo partly drawn) [Compound 11, 2-(3-(2-cyclopropylpyridin-4-yl)-1,2,4-oxadiazol-5-yl)-N—((S)-1-phenylethyl)propanamide] |
| ≤ 1 | C[C@@H](C(=O)NC1CCCCC1)c1nc(-c2ccnc(C3CC3)c2)no1 (single isomer, unassigned) [Compound 3] |
| ≤ 1 | C[C@@H](C(=O)Nc1ccccc1)c1nc(-c2ccnc(C3CC3)c2)no1 (single isomer, unassigned) [Compound 8] |
| ≤ 1 | C[C@H](C(=O)NC1CCCCC1)c1nc(-c2ccnc(C3CC3)c2)no1 (single isomer, unassigned) [Compound 4] |
| 1 to 20 | C[C@@H](C(=O)N1CCCCC1)c1nc(-c2ccnc(C3CC3)c2)no1 (single isomer, unassigned) [Compound 6] |
| 1 to 20 | CC(C(=O)N(C)c1ccccc1)c1nc(-c2ccnc(C3CC3)c2)no1 (stereo not drawn) [Compound 10, -[3-(2-cyclopropyl-4-pyridyl)-1,2,4-oxadiazol-5-yl]-N-methyl-N-phenyl-propanamide] |
| ≤ 1 | CC(C(=O)Nc1ccccc1)c1nc(-c2ccnc(C3CC3)c2)no1 (stereo not drawn) [Compound 1, 2-[3-(2-cyclopropyl-4-pyridyl)-1,2,4-oxadiazol-5-yl]-N-phenyl-propanamide] |
| 1 to 20 | CC(C(=O)N1CCCCC1)c1nc(-c2ccnc(C3CC3)c2)no1 (stereo not drawn) [Compound 5, 2-(3-(2-cyclopropylpyridin-4-yl)-1,2,4-oxadiazol-5-yl)-1-(piperidin-1-yl)propan-1-one] |
